The source of these data is paper PMC5856786, “A DHODH inhibitor increases p53 synthesis and enhances tumor cell killing by p53 degradation blockage” (Nature Communications, 2018).

Each structure is given as a SMILES string.

The nature of series [1]: In vivo pharmacokinetic parameters of (R)-HZ05. The arrangement: species or system C57B1/6N mice. Particulars: female, C57B1/6N, mouse, plasma, sc, 50 mg kg-1; following subcutaneous administration (Supplementary Fig. 7b); read-out: half-life (converted). On the procedure: Waters Acquity UPLC (Waters Corp.) was used for all LC/MS and LC/MS/MS experiments. For chromatographic separation a general gradient was used (5 % mobile phase B to 90 % over 2 min total run) on a C18 BEH 1.7 µm column 2 × 50 mm (Waters Corp.). Mobile phase A consisted of 5 % acetonitrile 0.1 % formic acid and mobile phase B 100 % acetonitrile 0.1 % formic acid. The flow rate was 0.5 mL min-1 and 3 µL of the sample was injected. A standard curve between 3−1000 nM was prepared for each compound. […]
In vivo Pharmacokinetic Parameter Determination
(R)-HZ05 was formulated for subcutaneous and oral administration at 5 mg mL-1 in 20 % hydroxypropyl-β-cyclodextrin in PBS and formulated at 5 mg mL-1 diluted in physiological NaCl. […]
Blood was collected […]
in EDTA tubes from three mice per time point and stored on ice with plasma separated within 30 min by centrifugation at 2000 g and stored at –80 ° C until analysis at 0.08, 0.25, 0.5, 1, 2, 3, 4, 6 and 24 h post administration. […] internal standard (9 nM warfarin) was added to each plasma sample and each sample was shaken at RT for 10 min followed by centrifugation at 2000 g for 30 min at 4 °C. […] of sample was injected into an Acquity UPLC coupled to a triple quadrupole mass spectrometer (Waters) operated in MRM mode with positive electrospray ionization. MRM transition 381.09 > […]
CV and 40 V for CE) as a qualifier ion. Transition for internal standard was 309.16 > 163.005 (22 V for CV and 14 V for CE). Ion source conditions were: capillary voltage, 2000 V; desolvation temperature, 500 °C; desol vation gas flow rate, 1000 L h-1. Separation was conducted using a BEH C18 column (2.1 × 50 mm, 1.7 µm, Waters) using a linear gradient: 0 – 0.5 min, 5 % B; […], 100 % B, 1.61–2.00 min, 5 % B. Mobile phase A was 5 % acetonitrile with 0.1 % formic acid and B […]
All animal experimentation was carried out by Sweden
Contract In vivo Design AB in compliance with 2010/63/EU directive and approved by Stockholms Norra Djurförsöksetiska Nämnd (laboratory animal eth ical committee Stockholm) with the approval number N61/15. Any single plasma concentration value deviated by >10 times from the other two values was excluded from the pharmacokinetic evaluation, but was included in the figure. […]

The test system of series [2] is MV411 cells. Briefly: PI flow cytometry, sub-G1 cells, MV411. It is filed as cell-based. The method, then: Cell cycle distribution analysis was performed on a Becton Dickinson FACScan flow cytometer or FACSCalibur (BD Biosciences) following staining with propidium iodide (PI) or dual labeling with BrdU and PI[36]. These assays were analyzed using CellQuest Pro (BD Biosciences).
(Flow cytometry measures light scatter and fluorescence of single cells or particles in a stream.)

The subject of series [3] is protein kinases. The series is described as follows: Radioactive filter-binding assays, panel of 140 kinases (Supplementary Table 2). It is filed as biochemical. On the procedure:
Supplementary Table 2. In vitro inhibition (% remaining activity) of protein
free assays. Screening was performed by the International Centre for Kinase Profiling
(Dundee, UK) using radioactive ( P-ATP) filter-binding assays.
(1 picture or pasted object on this page, not shown here)

Series [4] relates to P-chk1 (Ser 345)/chk1 in HNDF cells. The series is described as follows: P-chk1/chk1 ratio by western blotting, HNDF. In kind it is cell-based, human. Conditions: second blot (taken as HNDF). The method, then: (Sigma, #N9162) for a further 2 h. […]
(Ser 345) and chk1 were detected. Ponceau S staining was used to monitor loading. […]
On the technique in general: A western blot detects proteins with antibodies after separation by electrophoresis.

The subject of series [5] is p53-null H1299 cells. Briefly: p53 reporter (CPRG assay) in p53-null H1299 cells transfected with RGCΔFosLacZ. In kind it is cell-based. Conditions: H1299, 16 h exposure. The method, then: Supplementary Figure 1. HZ compounds increase the levels of p53-induced mRNAs. a) p53-null H1299 cells were transfected with the RGCΔ FosLacZ reporter construct and levels of p53-dependent transcription were determined by CPRG assay following a 16 h exposure to HZ00. A vector expressing wild-type p53 was used as a positive control. The average of three […]
for 1 hour prior to treatment with 2 µM nutlin-3 for an additional 18 hours. Levels of p53-induced mRNAs and p53 mRNA were determined by q-RT-PCR. tbp was used as a control.
Values correspond to the average of three technical repeats with standard deviation used for error. RNA extraction and q-RT-PCR were performed as previously described - see supplementary information7. c) HCT116 p53 wild-type or p53 deficient cells were treated […]
supplementary information for cell line description8. d) ARN8 cells treated for 6 hours with HZ00 at indicated doses. Levels of p53 mRNA were determined by q-RT-PCR. […]

Series [6] deals with p53 in ARN8 cells. Briefly: p53 synthesis assay (35S-Met-Cys pulse labeling, p53 immunoprecipitation). In kind it is cell-based, human. Particulars: 20 μM, within 6 h of treatment. The method, then:
ARN8 cells were seeded at 2.5 × 10^6 cells per 10 cm dish. […] After 5.5 h, medium was substituted for Met- and Cys-deprived DMEM, supplemented with 5 μM nutlin-3, 0.5% FBS and 4 mM L-glutamine for 20 min in the presence of the corresponding compounds. ^35S-Met-Cys (50 μCi mL^−1) was added for 30 min. […] Samples were centrifuged at 16,000×g for 15 min at 4 °C. Volume of 30 µL of each supernatant was stored as input. The remaining supernatants were incubated with 5 µg anti-p53 DO-1 antibody and rotated overnight at 4 °C. Samples were transferred to Dynabeads Protein G (# D10004D, Life Technologies) and rotated for 30 min at RT. Samples were centrifuged briefly for 10 s and placed in front of a magnet. […] Pellets were resuspended in 3× LDS containing 100 mM DTT. Samples were separated by SDS-PAGE and the gels were incubated in enhancer solution (#6NE9741, PerkinElmer), dried and exposed to Carestream Kodak BioMax MR films at −80 °C.

Series [7] relates to HNDF cells. The series is described as follows: MTT growth/viability assay, HNDF. It is filed as cell-based, human. Particulars: 72 h. The method, then: MTT assays were performed in 96 well plates. After treatments, medium was replaced with 200 μL of MTT solution (3 mg mL^−1 MTT (Sigma #M2128) in PBS diluted 1:5 in growth medium). […] Volume of 200 μL DMSO per well were added and plates were read at 570 nm.

A word on the half-life: it is the time in which the quantity being followed falls by half.

`O=C(NC1CCCc2c1cnn2-c1ccccc1F)c1onc2c1CCCC2` (stereo not drawn) [HZ05]: the half-life in series [1] was 2.5 h. Also, the sub-G1 cells amounted to 65.4% in series [2] (HZ05 1 μM 72 h + 48 h, 2 μM nutlin-3a last 48 h); 30.2% in series [2] (HZ05 1 μM 72 h + 48 h, DMSO last 48 h); 5.5% in series [2] (HZ05 1 μM, 72 h treatment); 6.2% in series [2] (HZ05 2.5 μM, 72 h treatment).
With `O=C(NC1CCCc2c1cnn2-c1ccccc1F)c1ccccn1` (stereo not drawn) [HZ00], the “inhibition of protein kinases” value in series [3] is on record as “did not detect inhibition”. The P-chk1/chk1 was found to be 0.98 in series [4] (HZ00 10 µM, 24 h); 0.89 in series [4] (HZ00 10 µM, 48 h); 1.13 in series [4] (HZ00 10 µM, 72 h); 1.08 in series [4] (HZ00 20 µM, 24 h); 1.05 in series [4] (HZ00 20 µM, 48 h); 1.07 in series [4] (HZ00 20 µM, 72 h). The “p53-reporter activity in p53-null cells” value in series [5] is “did not result in p53-reporter activity”. Also, in series [6], the p53 synthesis entry was “increase p53 synthesis”. In series [7], the “inhibitory effect on proliferation, HNDF versus ARN8” value was “lesser inhibitory effect on proliferation of HNDFs than on the growth of ARN8 cells”.
